Results reported in patent publication US6569878B1, “Substituted 4-amino-thiazol-2-yl compounds as cyclin-dependent kinase inhibitors” (Agouron Pharmaceuticals Inc., priority 1997, dated 2003).
Like-named read-outs stand apart in the source and are kept apart here.

Tests used:
[1] = biological target: T1, complex of cyclin D1 and a fusion protein of human CDK4 and glutathione-S-transferase (GST-CDK4) (Homo sapiens, UniProt P11802); experiment: Inhibition of CDK4/cyclin D retinoblastoma kinase activity (D-type cyclin is D1); type: biochemical; conditions: superscript b: D-type cyclin is D1, read-out: Ki CDK 4/D
T1 construct: made in house; host or cells: insect cells, co-infected with baculovirus
T1 sequence (P11802 whole entry, the tested form may be a part): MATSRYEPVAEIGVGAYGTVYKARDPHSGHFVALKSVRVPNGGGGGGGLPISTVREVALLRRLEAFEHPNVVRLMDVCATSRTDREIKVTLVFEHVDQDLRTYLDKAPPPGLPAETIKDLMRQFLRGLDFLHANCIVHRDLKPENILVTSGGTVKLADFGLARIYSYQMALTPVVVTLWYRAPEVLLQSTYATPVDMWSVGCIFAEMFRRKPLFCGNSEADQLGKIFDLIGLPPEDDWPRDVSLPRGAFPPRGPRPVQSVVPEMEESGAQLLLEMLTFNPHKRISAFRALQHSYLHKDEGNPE
T1 sequence (P24385 whole entry partner, the tested form may be a part): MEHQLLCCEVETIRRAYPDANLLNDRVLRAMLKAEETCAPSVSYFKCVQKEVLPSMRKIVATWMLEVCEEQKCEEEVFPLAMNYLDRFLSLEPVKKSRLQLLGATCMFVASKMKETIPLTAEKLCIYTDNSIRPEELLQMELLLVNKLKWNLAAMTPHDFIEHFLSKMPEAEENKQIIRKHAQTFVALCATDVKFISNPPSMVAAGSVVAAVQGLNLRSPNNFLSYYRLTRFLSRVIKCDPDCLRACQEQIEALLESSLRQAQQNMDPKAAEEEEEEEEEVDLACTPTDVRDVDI
Experimental: Cyclin-dependent kinase activity was measured by quantifying the enzyme-catalyzed, time-dependent incorporation of radioactive phosphate from [^32P]ATP or [^33P]ATP into a protein substrate. Unless noted otherwise, assays were performed in 96-well plates in a total volume of 50 μL, in the presence of 10 mM HEPES (N-[2-hydroxyethyl]piperazine-N′-[2-ethanesulfonic acid]) (pH 7.4), 10 mM MgCl2, 25 μM adenosine triphosphate (ATP), 1 mg/mL ovalbumin, 5 μg/mL leupeptin, 1 mM dithiothreitol, 10 mM β-glycerophosphate, 0.1 mM sodium vanadate, 1 mM sodium fluoride, 2.5 mM ethylene glycol-bis(β-aminoethyl ether)-N,N,N′N′-tetraacetic acid (EGTA), 2% (v/v) dimethylsulfoxide, and 0.03-0.4 μCi [^32/33P]ATP per reaction. Reactions were initiated with enzyme, incubated at 30° C., and terminated after 20 minutes by the addition of ethylenediaminetetraacetic acid (EDTA) to 250 mM. The phosphorylated substrate was then captured on a nitrocellulose or phosphocellulose membrane using a 96-well filtration manifold, and unincorporated radioactivity was removed by repeated washing with 0.85% phosphoric acid. Radioactivity was quantified by exposing the dried membranes to a phosphorimager.
Apparent Ki values were measured by assaying enzyme activity in the presence of different inhibitor compound concentrations and subtracting the background radioactivity measured in the absence of enzyme. The kinetic parameters (kcat, Km for ATP) were measured for each enzyme under the usual assay conditions by determining the dependence of initial rates on ATP concentration. Inhibition data were fit to an equation for competitive inhibition using Kaleidagraph (Synergy Software), or were fit to an equation for competitive tight-binding inhibition using the software KineTic (BioKin, Ltd.).
A complex of human CDK4 and cyclin D3, or a complex of cyclin D1 and a fusion protein of human CDK4 and gluathione-S-transferase (GST-CDK4), or a complex of human CDK4 and genetically truncated (1-264) cyclin D3, was purified using traditional biochemical chromatographic techniques from insect cells that had been co-infected with the corresponding baculovirus expression vectors (see e.g., Meijer and Kim, “Chemical Inhibitors of Cyclin-Dependent Kinases,” Methods in Enzymol,. vol. 283 (1997), pp. 113-128.). The enzyme complex (5 or 50 nM) was assayed with 0.3-0.5 μg of purified recombinant retinoblastoma protein fragment (Rb) as a substrate. The engineered Rb fragment (residues 386-928 of the native retinoblastoma protein; 62.3 kDa) contains the majority of the phosphorylation sites found in the native 106-kDa protein, as well as a tag of six histidine residues for ease of purification. Phosphorylated Rb substrate was captured by microfiltration on a nitrocellulose membrane and quantified using a phosphorimager as described above. For measurement of tight-binding inhibitors, the enzyme complex concentration was lowered to 5 nM, and the assay duration was extended to 60 minutes, during which the time-dependence of product formation was linear.

[2] = biological target: T2, complex of human CDK4 and cyclin D3 (Homo sapiens, UniProt P11802); experiment: Inhibition of CDK4/cyclin D retinoblastoma kinase activity (D-type cyclin is D3); type: biochemical; conditions: superscript a: D-type cyclin is D3, read-out: Ki CDK 4/D
T2 construct: made in house; host or cells: insect cells, co-infected with baculovirus
T2 sequence (P11802 whole entry): as the sequence (P11802 whole entry, the tested form may be a part) above
T2 sequence (P30281 whole entry partner): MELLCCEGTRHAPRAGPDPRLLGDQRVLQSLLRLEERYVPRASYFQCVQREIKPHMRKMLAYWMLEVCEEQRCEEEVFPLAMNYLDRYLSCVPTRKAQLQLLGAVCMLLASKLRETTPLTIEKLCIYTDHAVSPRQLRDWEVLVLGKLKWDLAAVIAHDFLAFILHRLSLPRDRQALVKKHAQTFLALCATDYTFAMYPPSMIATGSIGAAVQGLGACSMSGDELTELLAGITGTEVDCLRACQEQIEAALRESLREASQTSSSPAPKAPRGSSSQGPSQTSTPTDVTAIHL
Outline: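 Radiometric assay: [32P]- or [33P]ATP phosphate incorporation into Rb substrate at 30°C for 20 min, stopped with EDTA, filter-captured and phosphorimaged.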

HCT116 = experiment: Inhibition of cell growth, MTT assay, HCT116; type: cell-based, human; conditions: Homo sapiens, HCT-116
Outline: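 Cells rested 4 h after plating, then exposed to graded compound concentrations in 0.5% (v/v) DMSO for four to six days (cell-type dependent) at 37° C, 5% CO2. Viability was read by MTT (0.2 mg/mL final, 4 h at 37° C), with DMSO-solubilized formazan measured at 540 nm.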

SW-480 = experiment: Inhibition of cell growth, MTT assay, SW-480; type: cell-based; conditions: Homo sapiens, SW480; SW-480, MTT assay
Experimental: Inhibition of cell growth was measured using the tetrazolium salt assay, which is based on the ability of viable cells to reduce 3-(4,5-dimethylthiazol-2-yl)-2,5-[2H]-diphenyltetrazolium bromide (MTT) to formazan (Mossman, Journal of Immunological Methods, vol. 65 (1983), pp. 55-58). The water-insoluble purple formazan product was then detected spectrophotometrically. Various cell lines (HCT-116, Saos-2, U2-OS, SW480, COLO-205, RXF-393, M14, MDA-MB-468, and MCF7) were grown in 96-well plates. Cells were plated in the appropriate medium at a volume of 135 μl/well in either McCoy's 5A Medium (for Saos-2, U2-OS, SW480, and HCT-116 cells), RPMI (for COLO-205, RXF-393, M14 cells), or Minimum Essential Medium Eagle (for MDA-MB-468 and MCF7 cells). Plates were incubated for four hours before addition of inhibitor compounds. Different concentrations of inhibitor compounds were added in 0.5% (v/v) dimethylsulfoxide (15 μL/well), and cells were incubated at 37° C. (5% CO2) for four to six days (depending on cell type). At the end of the incubation, MTT was added to a final concentration of 0.2 mg/mL, and cells were incubated for 4 hours more at 37° C. After centrifugation of the plates and removal of medium, the absorbance of the formazan (solubilized in dimethylsulfoxide) was measured at 540 nm. […] All results were compared to control cells treated only with 0.5% (v/v) dimethylsulfoxide.

CDK2/cyclin A = biological target: T3, CDK2/cyclin A (Homo sapiens, UniProt P24941); experiment: Inhibition of CDK2/cyclin A retinoblastoma kinase activity; type: biochemical; conditions: read-out: Ki CDK 2/A
T3 construct: made in house; host or cells: CDK2: insect cells (baculovirus); cyclin A: E. coli, then limited proteolysis
Outline: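 Baculovirus-expressed CDK2 with excess proteolyzed cyclin A (or purified complex), 150 nM or 5 nM, phosphorylating an Rb fragment with 25 μM [32/33P]ATP, pH 7.4, 30° C, 20 min. Filter-captured radioactivity by phosphorimager; apparent Ki from fits to competitive or tight-binding competitive inhibition using measured ATP Km.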

[3] = biological target: T4, human CDK1 (cdc2) and cyclin B (Homo sapiens, UniProt P06493); experiment: Inhibition of CDK1(cdc2)/cyclin B histone H1 kinase activity; type: biochemical; conditions: read-out: Ki CDK 1/B
T4 construct: purchased New England Biolabs (Beverly Mass.)
T4 sequence (P06493 whole entry): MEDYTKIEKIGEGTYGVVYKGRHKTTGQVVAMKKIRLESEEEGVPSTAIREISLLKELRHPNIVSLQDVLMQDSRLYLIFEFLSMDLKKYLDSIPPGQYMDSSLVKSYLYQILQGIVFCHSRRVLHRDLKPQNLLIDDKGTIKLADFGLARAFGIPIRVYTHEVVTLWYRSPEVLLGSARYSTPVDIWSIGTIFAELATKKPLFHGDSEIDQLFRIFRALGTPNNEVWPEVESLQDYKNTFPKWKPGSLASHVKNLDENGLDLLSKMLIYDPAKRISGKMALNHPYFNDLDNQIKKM
T4 sequence (P14635 whole entry partner): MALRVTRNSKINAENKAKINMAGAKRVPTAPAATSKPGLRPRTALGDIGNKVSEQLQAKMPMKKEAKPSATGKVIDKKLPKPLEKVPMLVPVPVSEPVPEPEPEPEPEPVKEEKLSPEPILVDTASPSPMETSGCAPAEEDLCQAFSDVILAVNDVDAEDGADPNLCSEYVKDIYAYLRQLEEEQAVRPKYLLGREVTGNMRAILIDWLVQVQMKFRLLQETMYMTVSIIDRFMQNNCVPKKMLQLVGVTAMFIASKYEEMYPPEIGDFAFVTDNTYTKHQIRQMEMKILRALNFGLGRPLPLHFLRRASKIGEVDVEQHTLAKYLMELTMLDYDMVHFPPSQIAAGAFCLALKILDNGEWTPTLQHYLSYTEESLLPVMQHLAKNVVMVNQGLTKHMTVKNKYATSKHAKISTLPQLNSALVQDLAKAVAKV
Outline: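 CDK1/cyclin B (commercial, or CDK1/GST-cyclin B1 from co-infected insect cells) phosphorylated histone H1 with 25 μM [32/33P]ATP at pH 7.4, 30° C for 20 min, 2% DMSO. Product captured on phosphocellulose and read by phosphorimager; apparent Ki from competitive or tight-binding fits, with Km for ATP determined.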

Row | SMILES | Ki ([1]; μM) | Ki [1] | Ki (CDK2/cyclin A) | Ki ([2]; apparent Ki) | Ki [3] | other results
1 | Nc1nc(Nc2ccccc2)sc1C(=O)c1cccc([N+](=O)[O-])c1 [A(1), (4-Amino-2-phenylamino-thiazol-5-yl)-(3-nitrophenyl)-methanone] |  | 0.77 µM | 1.2 µM | 0.66 µM |  | IC50 (HCT116): 2500 nM; IC90 (HCT116): 10000 nM; IC50 (SW-480): 4000 nM; IC90 (SW-480): 9000 nM
2 | CC(=O)c1sc(Nc2ccccc2)nc1N [I(2)*] | ~30 µM |  | 8.7 µM | 8 µM |  | 
3 | CCNc1nc(N)c(C(=O)c2ccccc2)s1 [I(5)*] |  | 0.87 µM | 4.6 µM | 1.1 µM | 4500 nM | 

Continued, in another order:

Row | Ki ([1]; μM) | Ki [1] | Ki (CDK2/cyclin A) | Ki ([2]; apparent Ki) | Ki [3] | SMILES | other results
4 | > 100 µM |  |  |  |  | CC(=O)c1sc(NCc2ccccc2)nc1N [I(3)*] | Ki ([2]; μM): > 5 µM
5 | 3.1 µM |  |  |  | 3900 nM | Nc1nc(Nc2ccccc2)sc1C(=O)C1CC1 [I(4)*] | Ki (CDK2/cyclin A; μM): 4.3 µM
6 |  | 0.102 µM | 0.46 µM | 0.64 µM | 500 nM | Nc1nc(Nc2ccccc2)sc1C(=O)c1ccccc1 [I(1)*] | 
7 |  | 0.49 µM | 0.9 µM |  |  | Nc1cccc(C(=O)c2sc(Nc3ccccc3)nc2N)c1 [D(1), (3-Amino-phenyl)-(4-amino-2-phenylamino-thiazol-5-yl)-methanone] | 
